{
  "source": "patent US20170209547A1",
  "about": "“N[…] USE IN […] AND ANXIETY IN PETS” (DOMES PHARMA, priority 2016, published 2017)",
  "tested_on": "male Wistar Han rats",
  "assay": "EDC test (anxiety test with electric probe burying), global anxiety score",
  "assay_type": "in vivo, rat",
  "settings": "Diazepam 3 mg/kg p.o. 60 min before the test",
  "description": "Forty male Wistar Han rats (Crl:WI(Han), Charles River Laboratories, L'Arbresle, France), weighing from 250 to 275 g were used. Upon receipt, the rats were marked and split into groups of 3 or 4 animals in polycarbonate cages (Eurostandard type IIIH, 425×266×185 mm, Tecniplast, Lyon, France). The animals were housed in a climate-controlled animal house, at a temperature of […] and relative humidity of 50±20%. The rats had food (Teklad Global 2016, Harlan, Ganat, France) and drink ad libitum and were held in a day-night cycle inverted by 12 hours (day from 20:00 to 08:00). […]\nThe experimental device was placed in a room lit with a low intensity red light. A video camera connected to a digital recorder saved all behavioral sequences so that behavior of interest could be measured later. […]\nThe electric probe was inserted into the cage before the start of the test. […] After the electric shock, the rat's behavior was recorded for 5 min. […]\nThe following behaviors were quantified from video recordings made during the tests: • duration probe was buried; • number of stretches in the direction of the probe; • number of approaches to the probe; • number of flights from the probe. […]",
  "data": [
    {"molecule": "CN1C(=O)CN=C(c2ccccc2)c2cc(Cl)ccc21", "note": "[Diazepam]", "values": [
      {"measurement": "Global anxiety score vs. vehicle group (Mann-Whitney test)", "result": "significantly lower"},
      {"measurement": "Global anxiety score, Median", "setting": "n = 9, Vehicle median 111", "result": 41}
    ]}
  ]
}
